Assay results as given in patent US20130331764A9, “ANTICANCER AGENT DELIVERY SYSTEM USING pH-SENSITIVE METAL NANOPARTICLES” (priority 2010, published 2013).

System: Breast cancer cells
Assay: Drug test: intranuclear delivery of doxorubicin by nuclear yellow-reddish fluorescence (fluorescence microscopy)
Assay type: cell-based
Procedure: In this Example, the anticancer drug doxorubicin was employed. Doxorubicin works to induce cell death by intercalating DNA. It emits yellow-reddish fluorescence at near 600 nm. When the conjugates penetrate into cancer cells, doxorubicin is dissociated from the gold nanoparticles by hydrolysis under an acidic condition and translocates into the nucleus which thus emits yellow-reddish fluorescence.
Breast cancer cells in test groups were incubated with the pH-sensitive gold nanoparticle-doxorubicin conjugates to induce the internalization of the conjugate (middle panel, FIG. 6).
For comparison, cells were incubated with doxorubicin-free pH-sensitive gold nanoparticles (left panel, FIG. 6) and with doxorubicin alone (right panel, FIG. 6) under the same condition.
The intranuclear delivery of doxorubicin can be qualitatively analyzed in terms of nuclear yellow-reddish fluorescence as measured by fluorescence microscopy.

For `COc1cccc2c1C(=O)c1c(O)c3c(c(O)c1C2=O)C[C@@](O)(C(=O)CO)C[C@@H]3O[C@H]1C[C@H](N)[C@H](O)[C@H](C)O1` [doxorubicin], the “nuclear fluorescence of doxorubicin” value (3 hours of incubation) was “the fluorescence was intensified” and the “nuclear fluorescence of doxorubicin” value (one hour of incubation) was “started to exhibit fluorescence”.
